Experimental data reported in patent publication US7718815B2, “Alpha-aminoamide derivatives useful in the treatment of lower urinary tract disorders” (Newron Pharmaceuticals S.p.A., priority 2004, dated 2010).

Key:
[1] = tested on: acetic acid (AA) irritated bladders of rats; test: Acute bladder irritation by acetic acid in rats (continuous infusion cystometrogram); format: in vivo, rat (female Sprague Dawley); conditions: anesthetized rats; 3, 10 and 30 mg/kg, intravenous cumulative doses; intravesical infusion of 0.15% acetic acid; FIG. 1
Method: (§1) The effect of a representative compound of formula I, (S)-(+)-2-[4-(2-fluorobenzyloxy)-benzylamino]-propanamide (NW-1029), on voiding function was tested in the following rat models of “Acute bladder irritation by acetic acid” and “Intermediate bladder irritation by cyclophosphamide (CYP)”.
(§2) Continuous infusion cystometrograms (0.04 ml/min) were used to measure intercontraction intervals (ICIs) which provide an estimate of bladder capacity. Cumulative dose response curves were obtained in each animal by administering intravenously increasing doses of the drug.
Experiments were performed using adult anesthetized female Sprague Dawley rats (170-200 g).
A catheter (PE-50) was inserted via a midline abdominal incision into the bladder through the bladder dome, and then intravesical pressure was measured to monitor bladder activity during continuous infusion of 0.15% of acetic acid. Intercontraction intervals (ICIs), maximal contraction pressure, and pressure thresholds inducing reflex bladder contraction were measured before and after intravesical infusion of acetic acid in NW-1029 treated rats.

[2] = tested on: cyclophosphamide (CYP) irritated bladders of rats; test: Intermediate bladder irritation by cyclophosphamide (CYP) in rats (continuous infusion cystometrogram); format: in vivo, rat (female Sprague Dawley); conditions: 0.1 to 10 mg/kg/iv, CYP 150 mg/kg/ip one day before
Method: as §1, §2
Experiments were performed using both adult awake and anesthetized female Sprague Dawley rats (170-200 g).
Chemical cystitis was induced by CYP, which is metabolized to acrolein, an irritant eliminated in the urine. CYP (150 mg/kg/ip) was administered one day before the experiment.
NW-1029 was administered in a dose range from 0.1 to 10 mg/kg/iv.

Structure (SMILES): C[C@H](NCc1ccc(OCc2ccccc2F)cc1)C(N)=O [NW-1029, (S)-(+)-2-[4-(2-fluorobenzyloxy)-benzylamino]-propanamide]
- intercontraction interval (ICI), reversal of AA-induced reduction [1]: significant reversal of the AA-induced reduction in the ICI
- intercontraction interval (ICI) ([2]; anesthetized rats, FIG. 3): significantly increases the ICI
- intercontraction interval (ICI) ([2]; awake rats, FIG. 2): significantly increases the ICI
